Test results from patent US10647732B2, “N-annulated perylene diimide dimers with active pyrrolic N—H bonds” (UTI Limited Partnership, priority 2018, dated 2020).
≈ marks a conversion by molar mass, not a printed value.

Legend:
physchem = conditions: organic solvent or mixture
[1] = Thermal stability by TGA and DSC; format: physicochemical
Protocol: Decomposition occurred above 390° C. as determined by thermal gravimetric analysis (TGA, FIG. 4A) and no phase transitions were observed up to 350° C. as determined by differential scanning calorimetry (DSC) (see FIG. 5A). This stability is similar to that of compound 5. TGA of compound 4 is illustrated in FIG. 4B. The TGA were run under N2 at 2° C. per min.
The impact of thermal annealing on the thin-film optical absorption profile is an important factor for use of such dimers. The BOC functionalized derivative 4 was synthesized at least in part to enable facile solution processing of the PDI dimer and generation of 3 in the solid film through thermal deprotection after film formation. FIGS. 5A-5C are DSC plots for compounds 3, 4 and 5, respectively, run under N2 at 10° C. per min. For clarity, the second and third trials of each cooling run and the third trial of each heating run is omitted for all species because the data is indistinguishable from previous runs. During the first heating trial of compound 4, an endothermic peak is clearly present in the plot with an onset occurring at 160° C. This was assumed to be the temperature where cleavage of the protecting group begins to occur and this is confirmed by the fact that this feature is not present in the second heating trial, which has a profile strongly resembling that of the heated NH Dimer 3 and further confirmed by bulk deprotection of compound 4 in an oven at 180° C. The first heating trial of compound 3 features a smooth, downward sloping line. […] This feature is due to a cold-crystallization and has previously been observed in similar molecules.
Thus, films were thermally annealed above this temperature (e.g., at 200° C.) to ensure the BOC protecting group was removed. Films of all three compounds 3-5 were studied.

[2] = Cyclic voltammetry in dichloromethane solution; format: physicochemical
Protocol: The electron affinity, 3.8 eV, and ionization potential, 5.8 eV, were determined from the onset of reduction (ca. −1.0V) and oxidation (ca. 1.0V), respectively, using a conversion value of 4.8. These values are similar to those of previously reported PDI dimers and indicate that compound 3 is suitable for use as an electron acceptor and transporting material in organic electronic devices. An analogous normalized CV plot of compound 4 is provided in FIG. 2B, where no oxidation is observed due to the electron withdrawing nature of the BOC group.
Cyclic Voltammetry (CV): All electrochemical measurements were performed using a CH Instruments potentiostat in a standard three-electrode configuration equipped with a silver wire pseudo-reference, platinum wire counter electrode and glassy carbon working electrode. The cyclic voltammetry experiments were performed in an anhydrous solution of dichloromethane (CH2Cl2) with ˜0.1 M tetrabutylammonium-hexafluorophosphate (TBAPF6) supporting electrolyte. Samples were scanned at a rate of 100 mV/s following a dry N2 purge to deoxygenate the solution, unless otherwise noted. Solution CV measurements were carried out with a sample concentration of ˜0.5 mg/mL in CH2Cl2, unless otherwise noted. Estimations of the energy levels were obtained by correlating the onset (Eox Fc/Fc+, Ered Fc/Fc+) to the normal hydrogen electrode (NHE), assuming a HOMO energy level of 4.80 eV for Fc/Fc+: E(HOMO)=−(Eox+4.80), E(LUMO)=−(Ered+4.80) UV-Visible Spectroscopy (UV/vis): All absorption measurements were recorded using an Agilent Technologies Cary 60 UV-vis spectrometer at room temperature. All solution UV/vis experiments were run in chloroform (CHCl3) using 2 mm quartz cuvettes and diluted 1% wt/v solutions, unless otherwise noted. Thin-films were prepared by spin-coating 1% wt/v solutions from CHCl3 onto Corning glass micro slides, unless otherwise noted. Prior to use, glass slides were cleaned with soap and water, acetone and isopropanol, and followed by UV/ozone treatment using a Novascan UV/ozone cleaning system.

[3] = Solubility in organic solvents; conditions: organic solvent or mixture

CCC(CC)n1c(=O)c2ccc3c4c(-c5cc6c(=O)n(C(CC)CC)c(=O)c7cc8[nH]c9cc%10c(=O)n(C(CC)CC)c(=O)c%11ccc%12c5c(c67)c8c9c%12c%11%10)cc5c(=O)n(C(CC)CC)c(=O)c6cc7[nH]c8cc(c1=O)c2c3c8c7c4c56 [Compound 3, tPDI2N—H]
solubility (physchem): ~5000 µg/mL (≈ 4.61 mM)
decomposition temperature ([1]; TGA under N2 at 2° C. per min): above 390 °C
oxidation waves E1/2 ([2]; dichloromethane solution, hexafluorophosphate electrolyte): 1.1 V vs. Fc/Fc+
ionization potential ([2]; from onset of oxidation (ca. 1.0V), conversion value of 4.8): 5.8 eV
electron affinity ([2]; from onset of reduction (ca. -1.0V), conversion value of 4.8): 3.8 eV

CCC(CC)n1c(=O)c2ccc3c4c(-c5cc6c(=O)n(C(CC)CC)c(=O)c7cc8c9c(c5c5ccc%10c(=O)n(C(CC)CC)c(=O)c%11cc(c9c5c%10%11)n8C(=O)OC(C)(C)C)c67)cc5c(=O)n(C(CC)CC)c(=O)c6cc7c(c4c56)c4c3c2c(cc4n7C(=O)OC(C)(C)C)c1=O [Compound 4, tPDI2N—BOC]
onset of endothermic peak (cleavage of the protecting group begins) ([1]; DSC first heating trial, under N2 at 10° C. per min): 160 °C
loss of the BOC group ([1]; TGA and DSC): ~170 °C

CCCCCCn1c2cc3c(=O)n(C(CC)CC)c(=O)c4ccc5c6c(-c7cc8c(=O)n(C(CC)CC)c(=O)c9cc%10c%11c(c7c7ccc%12c(=O)n(C(CC)CC)c(=O)c%13cc(c%11c7c%12%13)n%10CCCCCC)c89)cc7c(=O)n(C(CC)CC)c(=O)c8cc1c(c6c78)c2c5c43 [Compound 5, tPDI2N-Hex]
solubility [3]: > 50000 µg/mL
